Tests used:
p38α = target: T1, p38α (Homo sapiens, UniProt Q16539); test: In vitro enzyme assay, p38α isoform; format: biochemical; details: read-out: IC50 against p38α
T1 construct: c-myc (N); 6His (N); made in house; host or cells: E. coli (PET vectors)
Protocol: The ability of compounds of the invention to inhibit the enzyme p38 kinase was assessed. Activity of particular test compounds against each of the p38α and p38β isoforms of the enzyme was determined.
Human recombinant MKK6 (GenBank Accesion Number G1209672) was isolated from Image clone 45578 (Genomics, 1996, 33, 151) and utilised to produce protein in the form of a GST fusion protein in a pGEX vector using analogous procedures to those disclosed by J. Han et al., Journal of Biological Chemistry, 1996, 271, 2886-2891, p38α (GenBank Accession Number G529039) and p38β (GenBank Accession Number G1469305) were isolated by PCR amplification of human lymphoblastoid cDNA (GenBank Accession Number GM1416) and human foetal brain cDNA [synthesised from mRNA (Clontech, catalogue no. 6525-1) using a Gibco superscript cDNA synthesis kit] respectively using oligonucleotides designed for the 5′ and 3′ ends of the human p38α and p38β genes using analogous procedures to those described by J. Han et al., Biochimica et Biophysica Acta, 1995, 1265, 224-227 and Y. Jiang et al. Journal of Biological Chemistry 1996, 271, 17920-17926.
Both p38 protein isoforms were expressed in e coli in PET vectors. Human recombinant p38α and p38β isoforms were produced as 5′ c-myc, 6His tagged proteins. Both MKK6 and the p38 proteins were purified using standard protocols: the GST MKK6 was purified using a glutathione sepharose column and the p38 proteins were purified using nickel chelate columns.
The p38 enzymes were activated prior to use by incubation with MKK6 for 3 hours at 30° C. The unactivated coli-expressed MKK6 retained sufficient activity to fully activate both isoforms of p38. The activation incubate comprised p38α (10 μl of 10 mg/ml) or p38β (10 μl of 5 mg/ml) together with MKK6 (1 μl of 1 mg/ml), ‘Kinase buffer’ [100 μl; pH 7.4 buffer comprising Tris (50 mM), EGTA (0.1 mM), sodium orthovanadate (0.1 mM) and β-mercaptoethanol (0.1%)] and MgATP (30 μl of 50 mM Mg(OCOCH3)2 and 0.5 mM ATP). This produced enough activated p38 enzyme for 3 Microtiter plates.
Test compounds were solubilised in DMSO and 10 μl of a 1:10 diluted sample in ‘Kinase Buffer’ was added to a well in a Microtiter plate. For single dose testing, the compounds were tested at 10 μM. ‘Kinase Assay Mix’ [30 μl; comprising Myelin Basic Protein (Gibco BRL cat. no. 1322B-010; 1 ml of a 3.33 mg/ml solution in water), activated p38 enzyme (50 μl) and ‘Kinase Buffer’ (2 ml)] was then added followed by ‘Labelled ATP’ [10 μl; comprising 50 μM ATP, 0.1 μCi ^33P ATP (Amersham International cat. no. BF1000) and 50 mM Mg(OCOCH3)2]. The plates were incubated at room temperature with gentle agitation. Plates containing p38α were incubated for 90 min and plates containing p38β were incubated for 45 min. Incubation was stopped by the addition of 50 μl of 20% trichloroacetic acid (TCA). The precipitated protein was phosphorylated by p38 kinase and test compounds were assessed for their ability to inhibit this phosphorylation. The plates were filtered using a Canberra Packard Unifilter and washed with 2% TCA, dried overnight and counted on a Top Count scintillation counter.
(§1) Test compounds were tested initially at a single dose and active compounds were retested to allow IC50 values to be determined.

[1] = tested on: TNFα production by human peripheral blood mononuclear cells; test: PBMC test: TNFα production after lipopolysaccharide stimulation; format: cell-based; details: LPS-stimulated TNFα production
Protocol: The ability of compounds of this invention to inhibit TNFα production was assessed by using human peripheral blood mononuclear cells which synthesise and secrete TNFα when stimulated with lipopolysaccharide.
Peripheral blood mononuclear cells (PBMC) were isolated from heparinised (10 units/ml heparin) human blood by density centrifugation (Lymphoprep™; Nycomed). Mononuclear cells were resuspended in culture medium [RPMI 1640 medium (Gibco) supplemented with 50 units/ml penicillin, 50 μg/ml streptomycin, 2 mM glutamine and 1% heat-inactivated human AB serum (Sigma H-1513)]. Compounds were solubilised in DMSO at a concentration of 50 mM, diluted 1:100 in culture medium and subsequently serial dilutions were made in culture medium containing 1% DMSO. PBMCs (2.4×10^5 cells in 160 μl culture medium) were incubated with 20 μl of varying concentrations of test compound (triplicate cultures) or 20 μl culture medium containing 1% DMSO (control wells) for 30 minutes at 37° C. in a humidified (5%CO2/95% air) incubator (Falcon 3072; 96 well flat-bottom tissue culture plates). 20 μl lipopolysaccharide [LPS E.Coli 0111:B4 (Sigma L-4130), final concentration 10 μg/ml] solubilised in culture medium was added to appropriate 30 wells. 20 μl culture medium was added to “medium alone” control wells. Six “LPS alone” and four “medium alone” controls were included on each 96 well plate. Varying concentrations of a known TNFα inhibitor were included in each test, i.e. an inhibitor of the PDE Type IV enzyme (for example see Semmler, J. Wachtel. H and Endres. S., Int. J. Immunopharmac. (1993), 15(3), 409-413) or an inhibitor of proTNFα convertase (for example, see McGeehan, G. M. et al. Nature (1994) 370, 558-561). Plates were incubated for 7 hours at 37° C. (humidified incubator) after which 100 μl of the supernatant was removed from each well and stored at −70° C. (96 well round-bottom plates; Corning 25850). TNFα levels were determined in each sample using a human TNFα ELISA (see WO92/10190 and Current Protocols in Molecular Biology, vol 2 by Frederick M. Ausbel et al., John Wiley and Sons Inc.). [formula]

p38 kinase = test: In vitro enzyme assay, p38 kinase (isoform not specified, or p38α and/or p38β); format: biochemical, human; details: result in words
Protocol: The ability of compounds of the invention to inhibit the enzyme p38 kinase was assessed. Activity of particular test compounds against each of the p38α and p38β isoforms of the enzyme was determined. […]
Test compounds were solubilised in DMSO and 10 μl of a 1:10 diluted sample in ‘Kinase Buffer’ was added to a well in a Microtiter plate. […] The precipitated protein was phosphorylated by p38 kinase and test compounds were assessed for their ability to inhibit this phosphorylation. The plates were filtered using a Canberra Packard Unifilter and washed with 2% TCA, dried overnight and counted on a Top Count scintillation counter.
as §1

T1 sequence (Q16539 whole entry, canonical isoform): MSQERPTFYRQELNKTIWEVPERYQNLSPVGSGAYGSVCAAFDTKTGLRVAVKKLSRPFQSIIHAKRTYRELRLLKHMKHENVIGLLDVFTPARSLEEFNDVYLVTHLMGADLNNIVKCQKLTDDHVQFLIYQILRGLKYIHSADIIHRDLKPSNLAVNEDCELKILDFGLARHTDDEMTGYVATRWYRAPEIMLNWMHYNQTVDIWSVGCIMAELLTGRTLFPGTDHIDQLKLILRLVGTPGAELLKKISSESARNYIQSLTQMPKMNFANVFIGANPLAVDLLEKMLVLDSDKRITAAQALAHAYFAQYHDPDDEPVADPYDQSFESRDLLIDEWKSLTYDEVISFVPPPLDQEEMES

Row | melting point [°C] | IC50 (p38α) [nM] | IC50 [1] [nM] | p38 kinase inhibitory activity (p38 kinase) | Compound
1 | 297 to 299 |  |  |  | Cc1ccc(NC(=O)c2ccc(C#N)cc2)cc1NC(=O)c1ccc(O)cc1 [Example 4, N-[5-(4-Cyanobenzamido)-2-methylphenyl]-4-hydroxybenzamide]
2 |  | ~1700 | ~22000 |  | Cc1ccc(NC(=O)c2c(F)cccc2Cl)cc1NC(=O)c1ccc(O)cc1 [Example 9, Compound No. 12]
3 | 258 to 259 |  |  |  | COc1ccc(C(=O)Nc2cc(NC(=O)c3ccc(O)cc3)ccc2C)cc1OC [Example 10, N-[5-(4-hydroxybenzamido)-2-methylphenyl]-3,4-dimethoxybenzamide]
4 | 182 to 183 |  |  |  | COc1ccc(C(=O)Nc2cc(NC(=O)c3cccc(O)c3)ccc2C)cc1OC [Example 11, N-[5-(3-hydroxybenzamido)-2-methylphenyl]-3,4-dimethoxybenzamide]
5 | 179 to 180 | ~700 | ~7000 |  | COc1ccc(C(=O)Nc2cc(NC(=O)c3cccc(N)c3)ccc2C)cc1OC [Example 13, N-[5-(3-aminobenzamido)-2-methylphenyl]-3,4-dimethoxybenzamide]
6 | 234 to 238 |  |  |  | Cc1ccc(NC(=O)c2cccc(N(C)C)c2)cc1NC(=O)c1ccccc1O [Example 30, N-[5-(3-dimethylaminobenzamido)-2-methylphenyl]-2-hydroxybenzamide]
7 |  |  |  | possess p38 kinase inhibitory activity | Cc1ccc(NC(=O)c2cccc(N(C)C)c2)cc1NC(=O)c1ccc(O)cc1 [N-[5-(3-Dimethylaminobenzamido)-2-methylphenyl]-4-hydroxybenzamide]
8 |  | ~6000 |  |  | Cc1ccc(NC(=O)CCC2CCCC2)cc1NC(=O)c1ccc(O)cc1 [N-[5-(3-cyclopentylpropionamido)-2-methylphenyl]-4-hydroxybenzamide]

Continued, molecule first:

Row | Compound | melting point [°C] | IC50 (p38α) [nM] | IC50 [1] [nM] | p38 kinase inhibitory activity (p38 kinase)
9 | COc1ccc(C(=O)Nc2cc(NC(=O)c3cccc(Br)c3)ccc2C)cc1OC [Example 6, N-[5-(3-bromobenzamido)-2-methylphenyl]-3,4-dimethoxybenzamide] | 136 to 138 |  |  | 
10 | COc1ccc(C(=O)Nc2cc(NC(=O)c3cccc(N(C)C)c3)ccc2C)cc1OC [Example 9, Compound No. 7, N-[5-(3-dimethylaminobenzamido)-2-methylphenyl]-3,4-dimethoxybenzamide] |  | ~200 | ~7000 | 
11 | Cc1ccc(NC(=O)c2cccc(N3CCOCC3)c2)cc1NC(=O)c1cccc(N2CCOCC2)c1 [Example 9, Compound No. 50, N-[2-methyl-5-(3-morpholinobenzamido)phenyl]-3-morpholinobenzamide] |  | ~40 | ~1500 | 
12 | Cc1ccc(NC(=O)c2ccccc2)cc1NC(=O)c1cccc(CN2CCN(C)CC2)c1 [Example 9, Compound No. 51, N-(5-benzamido-2-methylphenyl)-3-(4-methylpiperazin-1-yl)methylbenzamide] |  | ~700 | ~3000 | 
13 | COc1ccc(C(=O)Nc2cc(NC(=O)c3cccc(NC(C)=O)c3)ccc2C)cc1OC [Example 33, N-[5-(3-acetamidobenzamido)-2-methylphenyl]-3,4-dimethoxybenzamide] | 187 to 188 |  |  | 
14 | Cc1ccc(NC(=O)CCC2CCCCC2)cc1NC(=O)c1ccc(O)cc1 [N-[5-(3-cyclohexylpropionamido)-2-methylphenyl]-4-hydroxybenzamide] |  | ~400 | ~7000 | 
15 | Cc1ccc(NC(=O)CCCC2CCCCC2)cc1NC(=O)c1ccc(O)cc1 [N-[5-(4-Cyclohexylbutyrylamino)-2-methylphenyl]-4-hydroxybenzamide] | 159 to 160 |  |  | 

From patent publication US6686467B2, “Amide derivatives for the treatment of diseases mediated by cytokines” (Zeneca Limited, priority 1997, dated 2004)
